Paper PMC11995831, “Synthesis of Novel Isoindolinones: Carbonic Anhydrase Inhibition Profiles, Antioxidant Potential, Antimicrobial Effect, Cytotoxicity and Anticancer Activity” (Journal of Biochemical and Molecular Toxicology, 2025)
Converted amounts (≈) assume the structure as drawn. “Also recorded” adds a separate entry of the source.

Columns and labels:
hCA I = hCA I (Homo sapiens, UniProt P00915); test: hCA I inhibition assay (esterase activity); type: biochemical; conditions: human erythrocyte hCA I
hCA I, sequence (P00915 whole entry): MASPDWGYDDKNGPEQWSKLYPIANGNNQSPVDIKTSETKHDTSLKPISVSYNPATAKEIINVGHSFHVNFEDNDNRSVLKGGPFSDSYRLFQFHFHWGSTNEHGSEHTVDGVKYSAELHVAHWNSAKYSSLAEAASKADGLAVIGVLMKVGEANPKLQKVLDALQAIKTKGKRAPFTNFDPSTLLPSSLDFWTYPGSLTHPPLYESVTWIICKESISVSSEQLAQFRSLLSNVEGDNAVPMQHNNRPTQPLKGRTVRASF

hCA II = hCA II (Homo sapiens, UniProt P00918); test: hCA II inhibition assay (esterase activity); type: biochemical; conditions: for IC50 / Ki: human erythrocyte hCA II, esterase activity
[1] = ABTS radical cation scavenging assay; conditions: for IC50 ABTS method: ABTS radical scavenging; for antioxidant activity (in words): ABTS scavenging and Fe reduction, compared to BHT, BHA, α-tocopherol; for ABTS radical scavenging (λ734): absorbance at 734 nm, 30 μg/mL concentration
Description: Antioxidant capacity was determined using the ABTS radical cation scavenging method ABTS and potassium persulfate (K2S2O8) were mixed in equal proportions and incubated at room temperature to generate the radical cation. The resulting solution was diluted with ethanol, and the absorbance of the control was adjusted to 0.928 ± 0.025 at 734 nm. Different concentrations of the compounds were prepared, added to test tubes, and adjusted with 0.2 mL of ethanol. To each tube, 0.8 mL of the ABTS radical solution was added. After incubation for 30 min, the absorbance of the remaining ABTS^•+ was measured at 734 nm.

[2] = Fe3+ reducing power assay (FRAP method); conditions: absorbance at 700 nm, 30 μg/mL concentration
Description: The ability of the carbamate compounds to reduce was evaluated using the FRAP assay. Various concentrations of the compounds were dissolved in deionized water to a final volume of 0.2 mL in test tubes. To each tube, 500 µL of potassium […] [K3Fe(CN)6] and 500 µL of phosphate buffer (0.2 M, pH 6.6) were added. The mixture was vortexed and incubated for 20 min at 50°C. Then, 500 µL of 10% trichloroacetic acid was added, and 500 µL of the upper layer of the solution was mixed with 100 µL of 0.1% FeCl3 and 500 µL of distilled water. The absorbance of the reducing effect was recorded using a spectrophotometer at 700 nm.

[3] = test system: Escherichia coli ATCC 43895; test: Disc diffusion, Escherichia coli; type: cell-based; conditions: read-out: inhibitory zone diameter, B3 Escherichia coli; for zone of inhibition at 1000 µg/mL: ATCC43895, compounds at 1000 μg/mL, disc diameter 5 mm, 24 h
Description: All tests were conducted in triplicate.

L929 cells = test: Cytotoxicity, WST-1 assay in L929 cells; type: cell-based; conditions: WST-1, 24 h exposure, 6.25-500 μg/ml
[4] = test system: Bacillus subtilis ATCC 6633; test: Disc diffusion, Bacillus subtilis; conditions: for zone of inhibition at 1000 µg/mL: ATCC6633, 24 h, read-out: inhibitory zone diameter, B1 Bacillus subtilis
[5] = test system: Staphylococcus aureus ATCC 25923; test: Disc diffusion, Staphylococcus aureus; conditions: for zone of inhibition at 1000 µg/mL: ATCC25923, 24 h, read-out: inhibitory zone diameter, B2 Staphylococcus aureus
[6] = test system: Klebsiella pneumoniae ATCC 13883; test: Disc diffusion, Klebsiella pneumoniae; conditions: for zone of inhibition at 1000 µg/mL: ATCC13883, 24 h, read-out: inhibitory zone diameter, B4 Klebsiella pneumonia
A549 cell line = test: Anticancer activity, WST-1 assay in A549 cells; conditions: WST-1, 24 h exposure, 6.25-500 μg/ml
[7] = test system: Candida albicans ATCC 10231; test: Disc diffusion, Candida albicans
[8] = test system: Yarrowia lipolytica ATCC 20460; test: Disc diffusion, Yarrowia lipolytica
[9] = positive control 10 µg disc^−1, disc diameter 5 mm

| SMILES | IC50 (hCA I) [nM] | Ki (hCA I) [nM] | IC50 (hCA II) [nM] | IC50 ABTS method [1] [µg/mL] | ABTS radical scavenging (λ734) [1] | Fe^3+-Fe^2+ reducing (λ700) [2] | zone of inhibition at 1000 µg/mL [3] [mm] | zone of inhibition at 1000 µg/mL [4] [mm] | zone of inhibition at 1000 µg/mL [5] [mm] | zone of inhibition at 1000 µg/mL [6] [mm] | Ki (hCA II) [nM] | other results |
| --- | --- | --- | --- | --- | --- | --- | --- | --- | --- | --- | --- | --- |
| CCOS(=O)(=O)N1C(=O)c2ccccc2C1(O)c1ccccc1 (centres unmarked) [2a, Ethyl1‐hydroxy‐3‐oxo‐1‐phenylisoindoline‐2‐sulfonate] | 24.3 ± 1.98 | 22 ± 9.21 | 28.84 ± 0.151 | 231.00 | 0.835 ± 0.024 | 1.168 ± 0.058 | 9 | 7 | 7 | 8 |  | antioxidant activity (in words) [1]: lowest activity; cell proliferation of L929 cells compared with control group (in words) (L929 cells): increased cell proliferation; anticancer activity against A549 cells (in words) (A549 cell line): dose‐dependent anticancer activity; also recorded: demonstrated inhibitory effects at high doses |
| CCCOS(=O)(=O)N1C(=O)c2ccccc2C1(O)c1ccccc1 (centres unmarked) [2b, Propyl1‐hydroxy‐3‐oxo‐1‐phenylisoindoline‐2‐sulfonate] | 42 ± 1.35 | 49.5 ± 12.1 | 231 ± 1 | 173.25 | 0.802 ± 0.072 | 1.260 ± 0.079 | 10 | 11 | 8 | 10 | 160 ± 46.6 | increase of activity on hCA II with n-propanol (2b) instead of n-butanol (2d) (hCA II; 2b compared with 2d, Ki hCA II): 1.56 fold |
| CC(C)OS(=O)(=O)N1C(=O)c2ccccc2C1(O)c1ccccc1 (centres unmarked) [2c, Isopropyl1‐hydroxy‐3‐oxo‐1‐phenylisoindoline‐2‐sulfonate] | 12.6 ± 0.37 | 11.5 ± 4.18 | 13.02 ± 0.041 | 40.76 | 0.549 ± 0.049 | 1.323 ± 0.133 | 18 | 16 | 19 | 17 | 9.32 ± 2.35 | cell proliferation of L929 cells compared with control group (in words) (L929 cells): increased cell proliferation |
| CCCCOS(=O)(=O)N1C(=O)c2ccccc2C1(O)c1ccccc1 (centres unmarked) [2d, Butyl1‐hydroxy‐3‐oxo‐1‐phenylisoindoline‐2‐sulfonate] | 75.7 ± 1.21 | 87.1 ± 35.2 | 86.37 ± 0.338 | 99.00 | 0.719 ± 0.032 | 1.278 ± 0.059 | 13 | 12 | 14 | 12 | 251 ± 37.1 | cell proliferation of L929 cells compared with control group (in words) (L929 cells): increased cell proliferation |
| CC(C)COS(=O)(=O)N1C(=O)c2ccccc2C1(O)c1ccccc1 (centres unmarked) [2e, Isobutyl1‐hydroxy‐3‐oxo‐1‐phenylisoindoline‐2‐sulfonate] | 11.8 ± 0.132 | 33.3 ± 15.1 | 23.85 ± 0.152 | 53.30 | 0.624 ± 0.040 | 1.316 ± 0.023 | 14 | 10 | 13 | 11 | 37.5 ± 14.7 |  |
| O=C1c2ccccc2C(O)(c2ccccc2)N1S(=O)(=O)OC1CCCCC1 (centres unmarked) [2f, Cyclohexyl1‐hydroxy‐3‐oxo‐1‐phenylisoindoline‐2‐sulfonate] | 11.2 ± 0.291 | 16.1 ± 4.14 | 27.8 ± 0.17 | 27.72 | 0.426 ± 0.132 | 1.485 ± 0.156 | 25 | 20 | 24 | 22 | 14.9 ± 3.25 | antioxidant activity (in words) [1]: highest antioxidant activity; zone of inhibition at 1000 µg/mL ([7]; Candida albicans, ATCC10231, 24 h, read-out: inhibitory zone diameter, F1 Candida albicans): 19 mm; zone of inhibition at 1000 µg/mL ([8]; Yarrowia lipolytica, ATCC20460, 24 h, read-out: inhibitory zone diameter, F2 Yarrowia lipolytica): 16 mm |
| CC1(C)S[C@@H]2[C@H](NC(=O)[C@H](N)c3ccccc3)C(=O)N2[C@H]1C(=O)O [Ampicillin, reference compound] |  |  |  |  |  |  |  |  |  |  |  | zone of inhibition at 10 µg/disc ([3]; ATCC43895, positive control 10 µg disc^−1, disc diameter 5 mm): 20 mm; zone of inhibition at 10 µg/disc ([4]; ATCC6633, read-out: inhibitory zone diameter, B1 Bacillus subtilis): 18 mm; zone of inhibition at 10 µg/disc ([5]; ATCC25923, read-out: inhibitory zone diameter, B2 Staphylococcus aureus): 21 mm; zone of inhibition at 10 µg/disc ([6]; ATCC13883, read-out: inhibitory zone diameter, B4 Klebsiella pneumonia): 19 mm |
| COc1ccc(O)c(C(C)(C)C)c1 [BHA, reference compound] |  |  |  | 12.83 (≈ 71.2 µM) | 0.201 ± 0.040 | 2.625 ± 0.241 |  |  |  |  |  |  |
| Cc1cc(C(C)(C)C)c(O)c(C(C)(C)C)c1 [BHT, reference compound] |  |  |  | 16.11 (≈ 73.1 µM) | 0.293 ± 0.094 | 2.510 ± 0.111 |  |  |  |  |  |  |
| C[C@@H]1[C@H](O)[C@@H](C)/C=C/C=C/CC/C=C/C=C/C=C/C=C/C(O[C@H]2O[C@H](C)[C@@H](O)[C@H](N)[C@@H]2O)CC2O[C@](O)(CC(O)C(O)CCC(O)CC(O)CC(O)CC(=O)O[C@H]1C)CC(O)C2C(=O)O (some centres unmarked) [Nystatin, reference compound] |  |  |  |  |  |  |  |  |  |  |  | inhibitory zone diameter, F1 Candida albicans [7, 9]: 18 mm; inhibitory zone diameter, F2 Yarrowia lipolytica [8, 9]: 15 mm |
| Cc1c(C)c2c(c(C)c1O)CC[C@@](C)(CCC[C@H](C)CCC[C@H](C)CCCC(C)C)O2 [α‐Tokoferol, α‐tocopherol, reference compound] |  |  |  | 18.23 (≈ 42.3 µM) | 0.319 ± 0.101 | 1.465 ± 0.284 |  |  |  |  |  |  |
